Where only a bound is given, the exact number is not on record here.

Here are results for 30 molecules from patent US20240116947A1, “PYRIDO OXAZINE DERIVATIVES AS ALK5 INHIBITORS” (CHIESI FARMACEUTICI S.P.A., priority 2020, published 2024).

Chain of human ALK5 (P36897 80-503 limits assumed): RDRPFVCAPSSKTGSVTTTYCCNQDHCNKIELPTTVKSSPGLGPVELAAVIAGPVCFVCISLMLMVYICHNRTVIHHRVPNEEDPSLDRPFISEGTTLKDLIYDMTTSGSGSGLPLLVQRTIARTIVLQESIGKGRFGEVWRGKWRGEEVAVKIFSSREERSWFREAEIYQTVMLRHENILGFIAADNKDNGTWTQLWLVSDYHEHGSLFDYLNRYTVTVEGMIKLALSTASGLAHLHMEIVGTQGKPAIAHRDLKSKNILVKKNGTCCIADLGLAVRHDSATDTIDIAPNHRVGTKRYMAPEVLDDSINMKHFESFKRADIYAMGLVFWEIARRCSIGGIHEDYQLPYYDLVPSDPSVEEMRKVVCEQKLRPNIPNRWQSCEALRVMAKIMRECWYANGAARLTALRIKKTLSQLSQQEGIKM

The target of the assay is human ALK5 (Homo sapiens (Human), UniProt P36897). As to the kind of experiment: ADP-GLO Kinases assay, inhibition of ALK5 enzymatic activity. Type of assay: biochemical. The conditions noted are these: Table 4; potency bins; purified recombinant human ALK5, ADP-Glo, 25° C.; read-out: ALK5 IC50. The procedure:
The enzymatic activity of compounds of the present invention was monitored measuring the formation of ADP using the ADP-GLO Kinases assay. Following the incubation of the purified enzyme, a substrate and ATP, the produced ADP was converted into ATP, which in turn was converted into light by Ultra-Glo Luciferase. The luminescent signal positively correlated with ADP amount and kinase activity. Briefly, the kinase reaction was performed by incubating 2.6 nM of the purified, commercially available human ALK5 (recombinant TGF β1 N-term GST-tagged, 80-end), a final concentration of TGFβ1 peptide 94.5 μM (Promega, T36-58) and ultra-pure ATP (Promega V915B). […] All reactions/incubations were performed at 25° C. Compound and ALK5 kinase were mixed and incubated for 15 mins. Reactions were initiated by addition of ATP at a final concentration in the assay of 0.83 μM. After an incubation of 150 min, the reaction was stopped, and ADP production detected with ADP-Glo kit according to manufacturer's indications. The assay was performed in 384-well format and was validated using a selection of reference compounds that was tested in 11 point concentration-response curve.
(In general: ADP-Glo first removes unused ATP, then detects ADP through luciferase.)
Regarding `Fc1ccc(Cl)cc1-c1cc2c(cn1)OCCN2c1ccncc1` [Example 1, 4-[7-(5-chloro-2-fluorophenyl)-1H,2H,3H-pyrido[3,4-b][1,4]oxazin-1-yl]pyridine], the concentration for half-maximal inhibition (IC50) (in general, the concentration at which inhibition is half-maximal) fell in the range of 5 to 10 nM.
Consider `Nc1nc(-c2cc(Cl)ccc2F)cc2c1OCCN2c1ccncc1` [Example 2, 7-(5-chloro-2-fluorophenyl)-1-(pyridin-4-yl)-1H,2H,3H-pyrido[3,4-b][1,4]oxazin-5-amine], for which the 50% inhibitory concentration (IC50) fell in the range of 5 to 10 nM.
For `Nc1cc(N2CCOc3cnc(-c4cc(Cl)ccc4F)cc32)ccn1` [Example 3, 4-[7-(5-chloro-2-fluorophenyl)-1H,2H,3H-pyrido[3,4-b][1,4]oxazin-1-yl]pyridin-2-amine] the value was 1 to 5 nM; for `Nc1cc(N2CCOc3cnc(-c4cc(F)ccc4F)cc32)ccn1` [Example 4, 4-[7-(2,5-difluorophenyl)-1H,2H,3H-pyrido[3,4-b][1,4]oxazin-1-yl]pyridin-2-amine], 5 to 10 nM.
With `Nc1cc(N2CCOc3cnc(-c4cccc(Cl)c4)cc32)ccn1` [Example 5, 4-[7-(3-chlorophenyl)-1H,2H,3H-pyrido[3,4-b][1,4]oxazin-1-yl]pyridin-2-amine], the IC50 fell in the range of 5 to 10 nM.
As to `Nc1cc(N2CCOc3cnc(-c4nc(Cl)ccc4F)cc32)ccn1` [Example 7, 4-[7-(6-Chloro-3-fluoropyridin-2-yl)-1H,2H,3H-pyrido[3,4-b][1,4]oxazin-1-yl]pyridin-2-amine], the half-inhibitory concentration (IC50) fell in the range of 5 to 10 nM.
For `O=C(CCN1CCOCC1)Nc1cc(N2CCOc3cnc(-c4cc(Cl)ccc4F)cc32)ccn1` [Example 8, N-{4-[7-(5-chloro-2-fluorophenyl)-1H,2H,3H-pyrido[3,4-b][1,4]oxazin-1-yl]pyridin-2-yl}-3-(morpholin-4-yl)propanamide] the value was < 1 nM; for `CN(C)CCC(=O)Nc1cc(N2CCOc3cnc(-c4cc(Cl)ccc4F)cc32)ccn1` [Example 9, N-{4-[7-(5-chloro-2-fluorophenyl)-1H,2H,3H-pyrido[3,4-b][1,4]oxazin-1-yl]pyridin-2-yl}-3-(dimethylamino)propanamide], < 1 nM; for `O=C(CCN1CCNCC1)Nc1cc(N2CCOc3cnc(-c4cc(Cl)ccc4F)cc32)ccn1` [Example 10, N-{4-[7-(5-chloro-2-fluorophenyl)-1H,2H,3H-pyrido[3,4-b][1,4]oxazin-1-yl]pyridin-2-yl}-3-(piperazin-1-yl)propanamide], < 1 nM.
Take `Cc1ccc(F)c(-c2cc3c(cn2)OCCN3c2ccnc(N)c2)c1` [Example 11, 4-[7-(2-fluoro-5-methylphenyl)-1H,2H,3H-pyrido[3,4-b][1,4]oxazin-1-yl]pyridin-2-amine]: the IC50 lay in the range of 5 to 10 nM.
`Nc1cc(N2CCOc3cnc(-c4cc(C5CC5)ccc4F)cc32)ccn1` [Example 12, 4-[7-(5-cyclopropyl-2-fluorophenyl)-1H,2H,3H-pyrido[3,4-b][1,4]oxazin-1-yl]pyridin-2-amine]: the IC50 lay within 1 to 5 nM.
Next, `CC(C)c1ccc(F)c(-c2cc3c(cn2)OCCN3c2ccnc(N)c2)c1` [Example 13, 4-{7-[2-fluoro-5-(propan-2-yl)phenyl]-1H,2H,3H-pyrido[3,4-b][1,4]oxazin-1-yl}pyridin-2-amine]: 1 to 5 nM; `CN1CCN(CCC(=O)Nc2cc(N3CCOc4cnc(-c5cc(Cl)ccc5F)cc43)ccn2)CC1` [Example 14, N-{4-[7-(5-chloro-2-fluorophenyl)-1H,2H,3H-pyrido[3,4-b][1,4]oxazin-1-yl]pyridin-2-yl}-3-(4-methylpiperazin-1-yl)propanamide]: < 1 nM; `Fc1ccc(Cl)cc1-c1cc2c(cn1)OCCN2c1ccnc2[nH]ncc12` [Example 15, 7-(5-chloro-2-fluorophenyl)-1-{1H-pyrazolo[3,4-b]pyridin-4-yl}-1H,2H,3H-pyrido[3,4-b][1,4]oxazine]: 1 to 5 nM.
As to `Fc1ccc(Cl)cc1-c1cc2c(cn1)OCCN2c1ccnc2[nH]cnc12` [Example 17, 7-(5-chloro-2-fluorophenyl)-1-{3H-imidazo[4,5-b]pyridin-7-yl}-1H,2H,3H-pyrido[3,4-b][1,4]oxazine], the IC50 fell in the range of 5 to 10 nM.
Next, `O=C(CCN(CCO)CCO)Nc1cc(N2CCOc3cnc(-c4cc(Cl)ccc4F)cc32)ccn1` [Example 18, 3-[bis(2-hydroxyethyl)amino]-N-{4-[7-(5-chloro-2-fluorophenyl)-1H,2H,3H-pyrido[3,4-b][1,4]oxazin-1-yl]pyridin-2-yl}propanamide]: < 1 nM; `CN(CCC(=O)Nc1cc(N2CCOc3cnc(-c4cc(Cl)ccc4F)cc32)ccn1)C1COC1` [Example 19, N-{4-[7-(5-chloro-2-fluorophenyl)-1H,2H,3H-pyrido[3,4-b][1,4]oxazin-1-yl]pyridin-2-yl}-3-[methyl(oxetan-3-yl)amino]propanamide]: < 1 nM.
For the molecule `CN(CCO)CCC(=O)Nc1cc(N2CCOc3cnc(-c4cc(Cl)ccc4F)cc32)ccn1` [Example 20, N-{4-[7-(5-chloro-2-fluorophenyl)-1H,2H,3H-pyrido[3,4-b][1,4]oxazin-1-yl]pyridin-2-yl}-3-[(2-hydroxyethyl)(methyl)amino] propanamide], the IC50 was < 1 nM.
With `CN1CCN(CCC(=O)Nc2cc(N3CCOc4cnc(-c5cc(Cl)ccc5F)cc43)ccn2)CC1=O` [Example 22, N-{4-[7-(5-chloro-2-fluorophenyl)-1H,2H,3H-pyrido[3,4-b][1,4]oxazin-1-yl]pyridin-2-yl}-3-(4-methyl-3-oxopiperazin-1-yl)propanamide], the IC50 was < 1 nM.
For `COC(=O)CN(C)CCC(=O)Nc1cc(N2CCOc3cnc(-c4cc(Cl)ccc4F)cc32)ccn1` [Example 23, methyl 2-{[2-({4-[7-(5-chloro-2-fluorophenyl)-1H,2H,3H-pyrido[3,4-b][1,4]oxazin-1-yl]pyridin-2-yl}carbamoyl)ethyl](methyl)amino} acetate], the IC50 is < 1 nM.
With `CS(=O)(=O)NCCC(=O)Nc1cc(N2CCOc3cnc(-c4cc(Cl)ccc4F)cc32)ccn1` [Example 24, N-{4-[7-(5-chloro-2-fluorophenyl)-1H,2H,3H-pyrido[3,4-b][1,4]oxazin-1-yl]pyridin-2-yl}-3-methanesulfonamidopropanamide], the IC50 is < 1 nM.
As for `CN1CCN(CCC(=O)Nc2cc(N3CCOc4cnc(-c5cc(Cl)ccc5F)cc43)ccn2)C(=O)C1` [Example 25, N-{4-[7-(5-chloro-2-fluorophenyl)-1H,2H,3H-pyrido[3,4-b][1,4]oxazin-1-yl]pyridin-2-yl}-3-(4-methyl-2-oxopiperazin-1-yl)propanamide], the half-inhibitory concentration (IC50) was < 1 nM.
Consider `CS(=O)(=O)CCNCCC(=O)Nc1cc(N2CCOc3cnc(-c4cc(Cl)ccc4F)cc32)ccn1` [Example 26, N-{4-[7-(5-chloro-2-fluorophenyl)-1H,2H,3H-pyrido[3,4-b][1,4]oxazin-1-yl]pyridin-2-yl}-3-[(2-methanesulfonylethyl)amino] propanamide], for which the IC50 was < 1 nM.
Turning to `CN(CCC(=O)Nc1cc(N2CCOc3cnc(-c4cc(Cl)ccc4F)cc32)ccn1)CCS(C)(=O)=O` [Example 27, N-{4-[7-(5-chloro-2-fluorophenyl)-1H,2H,3H-pyrido[3,4-b][1,4]oxazin-1-yl]pyridin-2-yl}-3-[(2-methanesulfonylethyl)(methyl)amino]propanamide], the IC50 fell in the range of 1 to 5 nM.
`O=C(CCN1CCN(CCO)CC1)Nc1cc(N2CCOc3cnc(-c4cc(Cl)ccc4F)cc32)ccn1` [Example 28, N-{4-[7-(5-chloro-2-fluorophenyl)-1H,2H,3H-pyrido[3,4-b][1,4]oxazin-1-yl]pyridin-2-yl}-3-[4-(2-hydroxyethyl)piperazin-1-yl]propanamide]: the IC50 was < 1 nM.
For `CN(CCNS(C)(=O)=O)CCC(=O)Nc1cc(N2CCOc3cnc(-c4cc(Cl)ccc4F)cc32)ccn1` [Example 29, N-{4-[7-(5-chloro-2-fluorophenyl)-1H,2H,3H-pyrido[3,4-b][1,4]oxazin-1-yl]pyridin-2-yl}-3-[(2-methanesulfonamidoethyl)(methyl)amino]propanamide], the 50% inhibitory concentration (IC50) was < 1 nM.
Take `CS(=O)(=O)NCCN1CCN(CCC(=O)Nc2cc(N3CCOc4cnc(-c5cc(Cl)ccc5F)cc43)ccn2)CC1` [Example 30, N-{4-[7-(5-chloro-2-fluorophenyl)-1H,2H,3H-pyrido[3,4-b][1,4]oxazin-1-yl]pyridin-2-yl}-3-[4-(2-methanesulfonamidoethyl)piperazin-1-yl]propanamide]: the 50% inhibitory concentration (IC50) was < 1 nM.
With `CNC(=O)CCN1CCN(CCC(=O)Nc2cc(N3CCOc4cnc(-c5cc(Cl)ccc5F)cc43)ccn2)CC1` [Example 31, 3-{4-[2-({4-[7-(5-chloro-2-fluorophenyl)-1H,2H,3H-pyrido[3,4-b][1,4]oxazin-1-yl]pyridin-2-yl}carbamoyl)ethyl]piperazin-1-yl}-N-methylpropanamide], the half-inhibitory concentration (IC50) was < 1 nM.
Next, `CN1CCC(CCC(=O)Nc2cc(N3CCOc4cnc(-c5cc(Cl)ccc5F)cc43)ccn2)CC1` [Example 32, N-{4-[7-(5-chloro-2-fluorophenyl)-1H,2H,3H-pyrido[3,4-b][1,4]oxazin-1-yl]pyridin-2-yl}-3-(1-methylpiperidin-4-yl)propanamide]: < 1 nM.
As for `CN1CCN(CCC(=O)Nc2cc(N3CCOc4cnc(-c5cc(C6CC6)ccc5F)cc43)ccn2)CC1` [Example 33, N-{4-[7-(5-cyclopropyl-2-fluorophenyl)-1H,2H,3H-pyrido[3,4-b][1,4]oxazin-1-yl]pyridin-2-yl}-3-(4-methylpiperazin-1-yl)propanamide], the 50% inhibitory concentration (IC50) was < 1 nM.
